“Also recorded” adds a separate entry of the source.
What was measured:
[1] = tested on: cuprizone+rapamycin demyelination in C57BL/6J mice; type: in vivo; details: 6 weeks concurrent with CR
Excerpt: Animals (8 week-old male C57BL/6J mice) were subjected to cuprizone diet plus rapamycin injections (CR) for 6 weeks to induce demyelination. […] All animals were sacrificed after 6 weeks of CR to evaluate axonal integrity and microglial/macrophage activity in the white matter (corpus callosum, CC).
A total of 50 animals were included in the study, where 43 animals received CR demyelination for 6 weeks. During demyelination, a subset (n=7) of animals were kept on normal diet to serve as naïve age-matched controls.

[2] = tested on: ethidium bromide induced demyelination of caudal cerebellar peduncles in rats; assay: Focal ethidium bromide induced demyelination, remyelination analysis; type: in vivo, rat
Experimental: The experiment uses rats of relatively advanced age (1 year) since such rats undergo remyelination in a less efficient manner, thereby providing data that are more relevant to the clinical treatment of human patients with multiple sclerosis or other demyelination disorders.
Focal demyelination is induced in one year old rats (approximately 300 g in weight) by injecting stereotactically 5 μl of ethidium bromide solution (0.01% vol/vol in saline) in a bilateral manner into the caudal cerebellar peduncles (CCP). […] The rats are killed on day 24 post-ethidium bromide treatment for analysis of remyelination by quantitative polymerase chain reaction (qPCR) and microscopy. Serum T4 levels are determined before initiation of treatment and weekly thereafter and at study termination.

[3] = tested on: multiple sclerosis (MS) patients; assay: Placebo-controlled clinical trial of thyroid hormone neutral doses in relapsing-remitting MS; type: in vivo, human; details: 30 to 180 days
Experimental: Patients with relapsing-remitting MS are recruited to participate in the clinical trial and are provided informed consent describing risks and potential benefits of participation. […] Patients are dosed for a minimum of 30 days, and as long as 180 days. […] Serum T4 levels will continue to be determined on a weekly basis.
Patients are assessed for the status of myelin damage and speed of repair of demyelination in MS lesions that occur over this period of time in their brains, spinal cords, and/or optic nerves. Quantitation of myelin damage and repair is performed at baseline and periodically through the dosing, using specialized imaging methods, which specifically examine and quantitate myelin damage and repair in these parts of the nervous system. […] This compound is useful for useful for quantitating myelin repair. […] In addition to the quantitation of myelin damage and repair by imaging methods, the clinical status of the MS patients' disease progression is preliminarily evaluated using standard clinical endpoints for MS clinical trials, such as the Expanded Disability Status Scale (EDSS). The EDSS is a 10 point scale which quantitates the MS patients' levels of disability by evaluating physical activities of daily life, such as walking, swallowing, bowel and bladder function, etc.

Nurr1/RXR = Nurr1/RXR (Homo sapiens, UniProt P19793); assay: Permissive heterodimer transactivation assay in COS7 cells; type: cell-based
Excerpt: (§1) For PPARγ: CV-1 cells were transfected with 3×(rAOX/DR1)-tk-Luc reporter gene and an expression vector for PPARγ. For FXR:CV-1 cells were transfected with 3×(IBABP/IRI)-tk-Luc reporter gene and vectors for FXR and RXRα. For LXR:CV-1 cells were transfected with 3×(PLTP/LXRE)-tk-Luc reporter gene with vectors for LXRα or LXRβ. For Nurr1: COS7 cells were transfected with 3×NBRE-tk-luc reporter gene and full length Nurr-1 with or without full-length RXRα plasmid. […] Luciferase data were normalized to co-transfected β-gal activity. Luciferase activity was expressed as percent of maximal activity obtained using specific agonists. Rosiglitazone (PPARγ), GW4064 (FXR), T0901317 (LXR).

RARα = RARα (Homo sapiens, UniProt P10276); details: RARs (α, β, γ), at ≥1 μM
Experimental: To determine whether a RXR agonist can mediate its effects via RXRα receptor homodimers, RXRβ receptor homodimers, RXRγ receptor homodimers, or any combination thereof, or the corresponding RAR/RXR heterodimers, receptor-mediated transactivation assays were performed. For transactivation assays assessing RXR homodimer signaling, CV-1 cells were transfected with 1) an expression construct including a full length RXRα, RXRβ, or RXRγ; and 2) a rCRBPII/RXRE-tk-Luc reporter construct that included RXR homodimer-specific RXRE/DR1 responsive element linked to a luciferase gene. For transactivation assays assessing RAR/RXR heterodimer signaling, CV-1 cells were transfected with 1) an expression construct comprising a fusion protein including an estrogen receptor (ER) DNA binding domain linked to the ligand binding domain of RARα, RARβ, or RARγ and 2) a ERE-tk-Luc reporter construct that included an estrogen receptor responsive element linked to a luciferase gene. […] Data are mean values±SE from five independent experiments.

[4] = tested on: oligodendrocyte precursor cells (OPCs); assay: OPC differentiation into oligodendrocytes (PLP-EGFP); type: cell-based, mouse
EAE in B6 mice = assay: EAE dose titration in B6 mice with spleen and CNS analysis; type: in vivo; details: 200 μg/day vs vehicle
Experimental: A dose titration experiment was also conducted in EAE mice. EAE was induced in 28 B6 mice with MOG/CFA and PT as above. Mice were scored on day 7 as indicated above and divided into groups by score so means are as equal as possible.
At the completion of the experiment, the vehicle control and 200 μg/day groups were euthanized and spleen and CNS samples obtained.

[5] = tested on: cuprizone+rapamycin demyelination in C57BL/6J mice; assay: Cuprizone/rapamycin 12-week demyelination model, remyelination; type: in vivo, mouse; details: 10 mg/kg PO daily for 6 weeks after 12 weeks CR
Excerpt: All animals were sacrificed after 12 weeks of CR or after further 6 weeks of treatment to evaluate myelin in white matter (corpus callosum) and gray matter (hippocampus and cortex). In addition, the size of myelinated axons was quantified and the large myelinated axons were further assessed by 3D-electron microscopy (3D-EM). A total of 40 animals were included in the study, where all 40 animals received CR demyelination for 12 weeks. After demyelination, a subset (n=10) of animals are sacrificed to serve as controls to assess baseline demyelination. […] Floating brain sections are immunostained with myelin prolipid protein (PLP) to visualize and quantify myelin in gray matter, hippocampus (FIG. 16A) and cortex (FIG. 16B).

EAE in SJL mice = assay: EAE in SJL mice; type: in vivo; details: 50 μg i.p. every other day, day 8 to day 14
Experimental: To determine whether a RXR agonist can attenuate multiple sclerosis, SJL mice were immunized to induce EAE by s.c. injection at the base of their spine with 200 μL of adjuvant containing 200 μg proteolipid proteins (139-151) (PLP peptide; Peptides International, Louisville, Ky.) and 400 μg of non-viable M. tuberculosis H37 desiccate emulsified in a mixture of incomplete Freund's adjuvant and PBS. Mice were also given 150 ng of pertussis toxin in PBS i.p. on the same day as PLP emulsion injection and 2 days later. […] Mice were scored using the scale described in Example 3.

LXRβ/RXR = assay: Permissive heterodimer transactivation assay in CV-1 cells; type: cell-based; details: 20 hr, relative to T0901317
Excerpt: as §1

LXRα/RXR = assay: as above; type: cell-based; details: 20 hr, relative to T0901317
Excerpt: as §1

FXR/RXR = target: T1, FXR/RXR (Homo sapiens, UniProt P19793); assay: as above; type: cell-based; details: 20 hr, relative to GW4064
T1 construct: expressed in transfected cells; host or cells: CV-1
T1 sequence (P19793 1-462): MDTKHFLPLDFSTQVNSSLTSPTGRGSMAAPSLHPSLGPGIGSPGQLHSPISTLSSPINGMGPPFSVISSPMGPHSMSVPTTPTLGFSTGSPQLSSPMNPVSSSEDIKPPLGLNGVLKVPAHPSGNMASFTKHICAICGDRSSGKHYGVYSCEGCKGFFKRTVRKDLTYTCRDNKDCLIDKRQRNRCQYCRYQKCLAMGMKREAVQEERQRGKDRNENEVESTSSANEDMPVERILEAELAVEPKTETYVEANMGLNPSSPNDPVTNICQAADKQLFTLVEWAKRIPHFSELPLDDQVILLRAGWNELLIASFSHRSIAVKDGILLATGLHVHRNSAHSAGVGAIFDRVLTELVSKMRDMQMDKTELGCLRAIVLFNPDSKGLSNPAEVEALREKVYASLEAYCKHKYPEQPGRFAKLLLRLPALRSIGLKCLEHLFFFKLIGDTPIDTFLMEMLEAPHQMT
T1 sequence (Q96RI1 1-486 partner): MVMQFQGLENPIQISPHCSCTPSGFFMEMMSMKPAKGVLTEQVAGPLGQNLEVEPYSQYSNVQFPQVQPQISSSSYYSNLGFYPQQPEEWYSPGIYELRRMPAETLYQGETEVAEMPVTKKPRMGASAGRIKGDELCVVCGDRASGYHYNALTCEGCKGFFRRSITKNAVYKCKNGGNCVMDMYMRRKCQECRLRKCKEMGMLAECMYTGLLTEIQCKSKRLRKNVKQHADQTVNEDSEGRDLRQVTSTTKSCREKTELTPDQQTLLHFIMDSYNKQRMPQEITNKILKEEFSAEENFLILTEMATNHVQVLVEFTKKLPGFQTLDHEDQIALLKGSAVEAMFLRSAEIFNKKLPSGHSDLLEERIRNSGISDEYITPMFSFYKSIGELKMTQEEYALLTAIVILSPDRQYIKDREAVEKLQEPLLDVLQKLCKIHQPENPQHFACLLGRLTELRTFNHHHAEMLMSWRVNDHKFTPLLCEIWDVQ
Excerpt: as §1

RXRγ = target: T2, RXRγ (Homo sapiens, UniProt P48443); assay: RXR homodimer transactivation assay (rCRBPII/RXRE-tk-Luc) in CV-1 cells; type: cell-based
T2 construct: an expression construct including a full length RXRα, RXRβ, or RXRγ; expressed in transfected cells; host or cells: CV-1
T2 sequence (P48443 1-463): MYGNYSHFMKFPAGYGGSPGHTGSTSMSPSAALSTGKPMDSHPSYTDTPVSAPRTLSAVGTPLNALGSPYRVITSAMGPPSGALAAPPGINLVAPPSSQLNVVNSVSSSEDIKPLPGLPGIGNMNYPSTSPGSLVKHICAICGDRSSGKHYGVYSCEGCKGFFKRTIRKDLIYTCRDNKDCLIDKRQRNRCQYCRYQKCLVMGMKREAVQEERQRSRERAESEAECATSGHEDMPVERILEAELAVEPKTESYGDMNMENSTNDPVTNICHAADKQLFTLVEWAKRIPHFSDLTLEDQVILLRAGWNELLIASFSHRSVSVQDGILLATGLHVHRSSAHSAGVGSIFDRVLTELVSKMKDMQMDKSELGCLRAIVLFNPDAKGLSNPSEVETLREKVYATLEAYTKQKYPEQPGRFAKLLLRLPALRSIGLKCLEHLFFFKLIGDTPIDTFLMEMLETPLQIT
Experimental: To determine whether a RXR agonist can mediate its effects via RXRα receptor homodimers, RXRβ receptor homodimers, RXRγ receptor homodimers, or any combination thereof, or the corresponding RAR/RXR heterodimers, receptor-mediated transactivation assays were performed. For transactivation assays assessing RXR homodimer signaling, CV-1 cells were transfected with 1) an expression construct including a full length RXRα, RXRβ, or RXRγ; and 2) a rCRBPII/RXRE-tk-Luc reporter construct that included RXR homodimer-specific RXRE/DR1 responsive element linked to a luciferase gene. For transactivation assays assessing RAR/RXR heterodimer signaling, CV-1 cells were transfected with 1) an expression construct comprising a fusion protein including an estrogen receptor (ER) DNA binding domain linked to the ligand binding domain of RARα, RARβ, or RARγ and 2) a ERE-tk-Luc reporter construct that included an estrogen receptor responsive element linked to a luciferase gene. The ER-RAR fusion proteins provided an accurate readout of only the transfected ER-RAR. […] Data are mean values±SE from five independent experiments.

Sequence of RARα (P10276 183-417 limits assumed, species assumed): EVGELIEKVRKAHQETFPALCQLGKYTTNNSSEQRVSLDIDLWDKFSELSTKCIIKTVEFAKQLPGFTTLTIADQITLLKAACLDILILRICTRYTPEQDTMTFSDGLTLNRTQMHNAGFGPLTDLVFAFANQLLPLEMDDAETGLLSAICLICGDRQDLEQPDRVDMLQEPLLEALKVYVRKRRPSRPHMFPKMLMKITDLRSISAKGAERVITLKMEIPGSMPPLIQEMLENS
Sequence of Nurr1/RXR (P43354 whole entry partner, one chain of several): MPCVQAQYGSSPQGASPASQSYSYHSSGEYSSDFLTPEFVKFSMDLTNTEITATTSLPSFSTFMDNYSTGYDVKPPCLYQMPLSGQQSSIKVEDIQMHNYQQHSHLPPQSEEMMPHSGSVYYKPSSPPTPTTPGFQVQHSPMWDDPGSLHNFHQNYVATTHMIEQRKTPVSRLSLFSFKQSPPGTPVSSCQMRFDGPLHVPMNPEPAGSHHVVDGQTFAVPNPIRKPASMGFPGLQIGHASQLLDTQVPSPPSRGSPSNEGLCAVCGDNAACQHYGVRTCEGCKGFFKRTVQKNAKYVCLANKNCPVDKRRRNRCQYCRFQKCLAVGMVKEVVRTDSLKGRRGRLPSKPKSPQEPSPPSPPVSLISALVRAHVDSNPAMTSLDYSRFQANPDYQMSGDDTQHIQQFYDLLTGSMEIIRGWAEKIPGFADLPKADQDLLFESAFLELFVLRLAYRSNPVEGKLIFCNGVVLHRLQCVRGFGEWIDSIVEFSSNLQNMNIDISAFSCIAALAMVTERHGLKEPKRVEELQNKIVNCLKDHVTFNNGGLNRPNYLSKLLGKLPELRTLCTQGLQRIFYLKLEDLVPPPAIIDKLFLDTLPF

For CC(/C=C/[C@@H]1C[C@]1(C)c1ccc2c(c1)C(C)(C)CCC2(C)C)=C\C(=O)O [IRX4204, 3,7-dimethyl-6(S),7(S)-methano,7-[1,1,4,4-tetramethyl-1,2,3,4-tetrahydronaphth-7-yl]2(E),4(E) heptadienoic acid], the “levels of Iba1 staining (microglia/macrophages) in CC compared to vehicle” value [1] was “no difference”, the “number of SMI32 stained axonal ovoids in CC compared to Vehicle” value [1] was “trend towards decreased number of axonal ovoids” and the “Mbp and Pdgfra expression (real-time qPCR of lesion samples)” value [2] was “increase in Mbp expression and an increase in Pdgfra expression”. The “densities of Olig2+ oligodendrocyte lineage cells and CC1+ differentiated oligodendrocytes in lesions” value ([2]; oral 1-10 mg/kg/day for fourteen days, relative to vehicle) was “increased”, the “clinical benefit (myelin imaging, EDSS, visual acuity) compared to placebo controls” value [3] was “Substantial clinical benefit” and the “activation of the Nurr1/RXR permissive heterodimer” value (Nurr1/RXR) was “selectively activates”. For the same molecule, the “activity detected at RARs” value (RARα) was “minimal activity”, the “total cell number and pyknotic cells compared to controls” value [4] was “did not show any differences” and the “OPC differentiation into oligodendrocytes (EGFP positive cells) compared to negative control (DMSO)” value ([4]; all tested concentrations except the lowest concentration (1^−6 μM)) was “significant increase in OPC differentiation into oligodendrocytes; also recorded: dose dependent increase”. The “co-expression of IFNγ and IL-17A by CD4 T cells in CNS” value (EAE in B6 mice) was “not significantly different”, the “CCR6 expression on CD4 T cells” value (EAE in B6 mice; spleen) was “lowered” and the “CD4+CD25hi cells (number)” value (EAE in B6 mice; spleen) was “reduced”. The “CD4+CD25hi cells frequency” value (EAE in B6 mice; spleen) was “not altered”, the “CD49d expression on CD4 T cells” value (EAE in B6 mice; spleen) was “lowered CCR6, but not CD49d” and the “total number of recently activated CD4 T cells (CD69 and CD44)” value (EAE in B6 mice; spleen) was “decreased”. The “size of myelinated axons in the corpus callosum” value [5] was “significant increase”, the “symptoms of EAE” value (EAE in SJL mice) was “significantly reduces the symptoms of EAE” and the “activation of LXRβ/RXR heterodimer” value (LXRβ/RXR) was “not to transactivate; also recorded: does not activate”. The “activation of LXRα/RXR heterodimer” value (LXRα/RXR) was “not to transactivate; also recorded: does not activate”, the “activation of FXR/RXR heterodimer” value (FXR/RXR) was “not to transactivate; also recorded: does not activate” and the “Efficacy (% of 1 μM IRX4204) RXRγ” value (RXRγ) was 0.09 ± 0.011 % of 1 μM IRX4204.
